Source: ChEMBL document CHEMBL3352226, “Synthesis of novel derivatives of 4-methylbenzimidazole and evaluation of their biological activities” (Eur J Med Chem, 2014)

Legend:
[1] = Antiglycation activity using BSA assessed as inhibition of AGE formation incubated at 37 degC for 9 days by fluorescence assay; format: physicochemical
[2] = Toxicity against human THP1 cells assessed as reduction in cell viability after 48 hrs by trypan blue dye exclusion method; format: cell-based; conditions: thp-1, 48 h
[3] = Antioxidant activity assessed as superoxide anion radical scavenging activity by nitroblue tetrazolium method; format: physicochemical
Leishmania major = test: Antileishmanial activity against Leishmania major JISH118 promastigotes infected in human THP1 cells by Giemsa staining method; format: functional, organism-based, THP-1
[4] = Antioxidant activity assessed as DPPH free radical scavenging activity incubated at 37 degC for 30 mins by microtiter plate reader based method; format: physicochemical
[5] = Antiglycation activity using BSA assessed as inhibition of AGE formation incubated at 37 degC for 9 days by fluorescence assay relative to untreated control; format: physicochemical; conditions: cattle, 216 h; also: test concentration or dose not given here
[6] = Leishmania major, JISH118, THP-1, read-out: IC50

SMILES	IC50 ([1]; read-out: IC50) [µM]	IC50 [3] [µM]	IC50 (Leishmania major; thp-1)	IC50 [4] [µM]	inhibition (INH) [5] [%]	IC50 [1]	IC50 (Leishmania major; [6]) [µM]	Activity [2]
COc1ccc(/C=N/NC(=O)c2ccc(-c3nc4cccc(C)c4[nH]3)cc2)c(I)c1O	405	210	Not Active	40.1				Non-toxic
Cc1cccc(/C=N/NC(=O)c2ccc(-c3nc4cccc(C)c4[nH]3)cc2)c1		345	Not Active	150	< 50	Not Active		Non-toxic
Cc1cccc2nc(-c3ccc(C(=O)N/N=C/c4ccc(F)cc4)cc3)[nH]c12		320	Not Active	90.2	< 50	Not Active		Non-toxic
Cc1cccc2nc(-c3ccc(C(=O)N/N=C/c4ccccn4)cc3)[nH]c12		350	Not Active	94.3	< 50	Not Active		Non-toxic
COc1ccc(/C=N/NC(=O)c2ccc(-c3nc4cccc(C)c4[nH]3)cc2)cc1OC		330	Not Active	120	< 50	Not Active		Non-toxic
CCCOC(=O)c1cc(O)c(O)c(O)c1 [PROPYL GALLATE]		106		30.3				
Cc1cccc2nc(-c3ccc(C(=O)N/N=C/c4ccc(Cl)cc4)cc3)[nH]c12		360	Not Active	120	< 50	Not Active		Non-toxic
Cc1cccc2nc(-c3ccc(C(=O)N/N=C/c4ccco4)cc3)[nH]c12		310	Not Active	180	< 50	Not Active		Non-toxic
Cc1cccc2nc(-c3ccc(C(=O)N/N=C/c4ccc([N+](=O)[O-])cc4)cc3)[nH]c12	450	312	Not Active	138				Non-toxic
Cc1cccc2nc(-c3ccc(C(=O)N/N=C/c4ccncc4)cc3)[nH]c12		340	Not Active	88.4	< 50	Not Active		Non-toxic
COc1ccc(/C=N/NC(=O)c2ccc(-c3nc4cccc(C)c4[nH]3)cc2)cc1O	360	222	Not Active	49.1				Non-toxic
COc1cc(/C=N/NC(=O)c2ccc(-c3nc4cccc(C)c4[nH]3)cc2)ccc1O	271	104	Not Active	26.2				Non-toxic
Cc1cccc2nc(-c3ccc(C(=O)N/N=C/c4cccs4)cc3)[nH]c12		320	Not Active	110	< 50	Not Active		Non-toxic
COc1cccc(/C=N/NC(=O)c2ccc(-c3nc4cccc(C)c4[nH]3)cc2)c1		345	Not Active	145	< 50	Not Active		Non-toxic
COc1ccc(/C=N/NC(=O)c2ccc(-c3nc4cccc(C)c4[nH]3)cc2)cc1		340	Not Active	140	< 50	Not Active		Non-toxic
Cc1cccc2nc(-c3ccc(C(=O)N/N=C/c4cccnc4)cc3)[nH]c12		310	Not Active	105	< 50	Not Active		Non-toxic
C[C@@H]1O[C@@H](OC[C@H]2O[C@@H](Oc3c(-c4ccc(O)c(O)c4)oc4cc(O)cc(O)c4c3=O)[C@H](O)[C@@H](O)[C@@H]2O)[C@H](O)[C@H](O)[C@H]1O [RUTIN]	294							
COC(=O)c1ccc(/C=N/NC(=O)c2ccc(-c3nc4cccc(C)c4[nH]3)cc2)cc1	501	322	Not Active	160				Non-toxic
Cc1ccccc1/C=N/NC(=O)c1ccc(-c2nc3cccc(C)c3[nH]2)cc1		340	Not Active	158	< 50	Not Active		Non-toxic
N=C(N)c1ccc(OCCCCCOc2ccc(C(=N)N)cc2)cc1 [PENTAMIDINE]							7.02	

Continued, in another order:

IC50 ([1]; read-out: IC50) [µM]	IC50 [3] [µM]	IC50 (Leishmania major; thp-1)	IC50 [4] [µM]	inhibition (INH) [5] [%]	IC50 [1]	IC50 (Leishmania major; [6]) [µM]	SMILES	Activity [2]
195	90	Not Active	17.3				Cc1cccc2nc(-c3ccc(C(=O)N/N=C/c4cc(O)cc(O)c4)cc3)[nH]c12	Non-toxic
150	101	Not Active	29				Cc1cccc2nc(-c3ccc(C(=O)N/N=C/c4ccc(O)cc4)cc3)[nH]c12	Non-toxic
206	86.1	Not Active	18.5				Cc1cccc2nc(-c3ccc(C(=O)N/N=C/c4cc(O)ccc4O)cc3)[nH]c12	Non-toxic
190	81	Not Active	14.2				Cc1cccc2nc(-c3ccc(C(=O)N/N=C/c4ccc(O)c(O)c4)cc3)[nH]c12	Non-toxic
340	202	Not Active	47.5				COc1ccc(/C=N/NC(=O)c2ccc(-c3nc4cccc(C)c4[nH]3)cc2)c(O)c1	Non-toxic
140	92.1	Not Active	27.4				Cc1cccc2nc(-c3ccc(C(=O)N/N=C/c4ccc(O)cc4O)cc3)[nH]c12	Non-toxic
220	82		12.1			37.8	Cc1cccc2nc(-c3ccc(C(=O)N/N=C/c4cccc(O)c4O)cc3)[nH]c12	Non-toxic
400	215	Not Active	74.2				COc1ccc(O)c(/C=N/NC(=O)c2ccc(-c3nc4cccc(C)c4[nH]3)cc2)c1	Non-toxic
350	190	Not Active	25.2				Cc1cccc2nc(-c3ccc(C(=O)N/N=C/c4ccc(O)c(Br)c4)cc3)[nH]c12	Non-toxic
380	209	Not Active	54.1				Cc1cccc2nc(-c3ccc(C(=O)N/N=C/c4ccccc4O)cc3)[nH]c12	Non-toxic
280	212	Not Active	60.2				Cc1cccc2nc(-c3ccc(C(=O)N/N=C/c4cccc(O)c4)cc3)[nH]c12	Non-toxic
